{"source": "paper PMC8843100", "about": "“Development of newly synthesised quinazolinone-based CDK2 inhibitors with potent efficacy against melanoma” (Journal of Enzyme Inhibition and Medicinal Chemistry, 2022)", "key": {"[1]": {"system": "glioblastoma cell line SNB-75", "assay": "Detection of IC50, MTT assay", "format": "cell-based", "settings": "Homo sapiens, read-out: IC50 (µM)±SD, 50% inhibition of cell viability, Glioblastoma SNB-75, 48 h", "experimental": "2. Detection of IC50 against MDA-MB-435, SNB-75 cell lines and normal cell line WI -38.\nAntiproliferative activities of 5c in melanoma cell line MDA-MB-435, glioblastoma cell line SNB-75 and normal cell line WI -38 and that of 8a in melanoma cell line MDA-MB-435 and normal cell line WI-38 were measured spectrophotometrically using in vitro MTT based toxicology assay kit (catalog no. M -5655, M-8910) (Sigma Aldrich), according to the manufacturer’s protocol. The three examined cell lin es were obtained from American Type Culture Collection (ATCC). Briefly, cells were platted (cells density 1.2 – 1.8 × 10,000 cells/well) in a volume of 100 µl complete growth medium + 100 μl of the tested compound per well in a 96-well […]\nsalt solution without phenol red and serum."}, "[2]": {"system": "melanoma MDA-MB-435 cells", "assay": "Cell cycle analysis, PI flow cytometry", "format": "cell-based, human", "settings": "MDA-MB-435, after 24 h at IC50 concentration", "experimental": "10% of the culture medium volume. Cultures were returned to incubator for 2–4 h. After the incubation period, cultures were removed from incubator and the resulting formazan crystals were dissolved by adding an amount of MTT solubilization solution [M-8910] equal to the original culture medium volume. Dissolution is enhanced by gentle mixing in a gyratory shaker. Then the absorbance is measured spectrophotometrically at a wavelength of 450 nm. The absorbance of multiwell plates was measured at 690 nm and subtracted from the 450 nm measurement. IC50 values (concentration of sample causing 50% loss of cell proliferation of the vehicle control) were calculated using non-linear regression curve fitting of the dose response plots on GraphPad Prism 7.0 software. Data presented are the results of at least three independent experiments. The results of these studies are presented as mean IC50 (μM) ± standard deviation (SD).\n(§1) Melanoma MDA -MB-435 and glioblastoma SNB-75 cells were treated with the quinazolinone 5c for 24 h (at its IC50 concentration), and then cells were washed twice with ice - cold phosphate buffered saline (PBS). Consequently, the treated cells were collected by centrifugation, fixed in ice -cold 70% (v/v) ethanol, washed with PBS, re -suspended with 100 μg/mL RNase, stained with 40 μg/mL propidium iodide (PI), and analyzed by flow cytometry using FACS Calibur (Becton Dickinson, BD, Franklin Lakes, NJ, USA). The cell cycle distributions were calculated using Cell Quest software 5.1 (Becton Dickinson). […]"}, "[3]": {"system": "glioblastoma SNB-75 cells", "assay": "Cell cycle analysis, PI flow cytometry", "format": "cell-based, human", "settings": "SNB-75, after 24 h at IC50 concentration", "experimental": "as §1"}, "[4]": {"system": "melanoma MDA-MB-435 cells", "assay": "Apoptosis determination, Annexin V-FITC/PI", "format": "cell-based, human", "settings": "MDA-MB-435, 24 h at IC50 concentration", "experimental": "The apoptotic activity of quinazolinone 5c in melanoma MDA-MB-435 and glioblastoma SNB-75 cell lines was further studied using Annexin V-FITC assay. […]\n4. Apoptosis determination\nAnnexin V fluorescein isothiocyanate (FITC)/PI apoptosis detection kit (BD Biosciences) was used according to the manufacturer’s instructions to measure the apoptotic activity of compound 5c. Melanoma MDA -MB-435 and glioblastoma SNB -75 cells were cultured to a monolayer then treated with the quinazolinone 5c at its IC50 concentration. The cells then were collected by trypsinisation and 0.5×10^6 cells were washed twice with PBS and stained with 5 µL Annexin V-FITC and 5 µL PI in 1Xbinding buffe r for 15 min. at room temperature in the dark.\nAnalyses were performed using FACS Calibur flow cytometer (BD Biosciences, San Jose, CA)."}}, "data": [{"smiles": "O=c1c2ccccc2nc(COc2ccccc2)n1NS(=O)(=O)c1ccc(Cl)cc1", "note": "[Compound 5c, 4-chloro-N-(4-oxo-2-(phenoxymethyl)quinazolin-3(4H)-yl)benzenesulfonamide]", "values": [{"measurement": "IC50", "setting": "[1]", "result": "8.62 ± 0.13", "unit": "µM"}, {"measurement": "%G0-G1", "setting": "[2]", "result": 55.29, "unit": "%"}, {"measurement": "%G2/M", "setting": "[2]", "result": 3.74, "unit": "%"}, {"measurement": "%Pre-G1", "setting": "[2]", "result": 28.65, "unit": "%"}, {"measurement": "%S", "setting": "[2]", "result": 40.97, "unit": "%"}, {"measurement": "Comment (cell cycle)", "setting": "[2]", "result": "Pre G1 apoptosis and cell growth arrest at S"}, {"measurement": "%G0-G1", "setting": "[3]", "result": 39.53, "unit": "%"}, {"measurement": "%G2/M", "setting": "[3]", "result": 31.78, "unit": "%"}, {"measurement": "%Pre-G1", "setting": "[3]", "result": 44.22, "unit": "%"}, {"measurement": "%S", "setting": "[3]", "result": 28.69, "unit": "%"}, {"measurement": "Comment (cell cycle)", "setting": "[3]", "result": "Pre G1 apoptosis and cell growth arrest at G2/M"}, {"measurement": "% Necrosis", "setting": "[4]", "result": 13.47, "unit": "%"}, {"measurement": "%Apoptosis Early", "setting": "[4]", "result": 4.53, "unit": "%"}, {"measurement": "%Apoptosis Late", "setting": "[4]", "result": 10.65, "unit": "%"}, {"measurement": "%Apoptosis Total", "setting": "[4]", "result": 28.65, "unit": "%"}]}]}
